Measured values: US9328117B2, “Bromodomain inhibitors and uses thereof” (Constellation Pharmaceuticals, Inc., priority 2011, dated 2016)

Tests used:
[1] = molecular target: T1, BRD4(BD1) (Homo sapiens, UniProt O60885); assay: BRD4 AlphaLisa binding assay; settings: BRD4(BD1) 30 nM, biotinylated H4-tetraacetyl peptide 200 nM
T1 construct: His; made in house
Procedure: A. IC50 Measurements for Inhibitors Using BRD4 AlphaLisa Binding Assay
His/Flag epitope tagged BRD4 BD142-168 was cloned, expressed and purified to homogeneity. BRD4 binding and inhibition was assessed by monitoring the engagement of biotinylated H4-tetraacetyl peptide (Millipore #12-379) with the target using the AlphaLisa technology (Perkin-Elmer). Specifically, in a 384 well ProxiPlate BRD4(BD1) (30 nM final) was combined with peptide (200 nM final) in 40 mM HEPES (pH 7.0), 40 mM NaCl, 1 mM DTT, 0.01% (w/v) BSA, and 0.008% (w/v) Brij-35 either in the presence of DMSO (final 1.2% DMSO) or compound dilution series in DMSO. After 20 minute incubation at room temperature Alpha streptavidin donor beads and AlphaLisa anti-Flag acceptor beads were added to a final concentration of 10 ug/mL each. After three hours equilibration plates were read on an Envision instrument and IC50s calculated using a four parameter non-linear curve fit.

[2] = tested on: MYC mRNA in MV4:11 (AML) cells; assay: cMyc RNA quantification assay (QuantiGene), MV4:11; type: cell-based; settings: Homo sapiens; MV4-11 cells, 4 h
Procedure: (§1) B. cMyc RNA quantification assay (QuantiGene® Assay)
(§2) MV4:11 (AML) or Raji (Burkitt lymphoma) cells were seeded in a 96-well plate and incubated in the presence of various concentrations of compounds for 4 h. Relative mRNA levels were quantitated by using QuantiGene 2.0 assay (Affymetrix) according to the manufacturer's recommendation. Signals were detected by using an Envision plate reader (Perkin-Elmer). Biological duplicates were averaged and normalized to vehicle (DMSO) control to calculate percent MYC mRNA levels.

[3] = tested on: IL-6 secretion in LPS-treated THP-1 cells; assay: Cell-based IL-6 quantification assay (ELISA, Mesoscale); settings: Homo sapiens, LPS 4 μg/mL, 16 h, normalised to CellTiter-Glo
Procedure: C. Cell-Based IL-6 Quantification Assay (ELISA, Mesoscale Assay):
100,000 THP-1 cells were seeded in RPMI1640-10% FBS in 96-well plates. LPS (E. Coli Invitrogen) in RPMI-10% FBS at a final concentration of 4 μg/mL was added to the wells and the cells are then incubated in the presence of various concentrations of compounds for 16 h. Plates are spun ([…], 5 min), an aliquot of 25 uL supernatant is transferred in to an ELISA plate (Mesoscale technology, MSD) and the detection of IL-6 is performed using manufacturer's instructions. The amount of cells in each well is assessed using CellTiter-Glo® (Promega). The ratio of ELISA value/CellTiter-Glo value is used to calculate the percent of inhibition of IL-6 secretion.

[4] = tested on: MYC mRNA in Raji (Burkitt lymphoma) cells; assay: cMyc RNA quantification assay (QuantiGene), Raji; type: cell-based; settings: Homo sapiens, 4 h
Procedure: as §1, §2

Compound | IC50 [1] [nM] | IC50 [2] [nM] | IC50 [4] [nM] | IC50 [3] [nM]
Cc1nnc2ccc(NC(C)c3ccccc3)nn12 (racemic) [Compound 1, rac-3-methyl-N-(1-phenylethyl)-[1,2,4]triazolo[4,3-b]pyridazin-6-amine] | > 1000 | > 1000 | – | > 1000
Cc1nnc2c(C(N)=O)cc(N(C)[C@@H](C)c3ccccc3)nn12 [Compound 7, (S)-3-methyl-6-(methyl(1-phenylethyl)amino)-[1,2,4]triazolo[4,3-b]pyridazine-8-carboxamide] | > 1000 | – | – | > 1000
Cc1nnc2ccc(N(C)[C@H](C)c3ccccc3)nn12 [Compound 4, (R)-N,3-dimethyl-N-(1-phenylethyl)-[1,2,4]triazolo[4,3-b]pyridazin-6-amine] | > 1000 | – | – | –
Cc1nnc2ccc(N3CCCC3c3ccccc3)nn12 (stereo not shown) [Compound 10, 3-methyl-6-(2-phenylpyrrolidin-1-yl)-[1,2,4]-triazolo[4,3-b]pyridazine] | > 1000 | – | – | –
Cc1nnc2ccc(N(C)C(C)c3ccccc3)nn12 (stereo not shown) [Compound 2, N,3-dimethyl-N-(1-phenylethyl)-[1,2,4]triazolo[4,3-b]pyridazin-6-amine] | 500 to 1000 | – | – | > 1000
CCNC(=O)Nc1cc(N(C)[C@@H](C)c2ccccc2)nn2c(C)nnc12 [Compound 5, (S)-1-ethyl-3-(3-methyl-6-(methyl(1-phenylethyl)amino)-[1,2,4]triazolo[4,3-b]pyridazin-8-yl)urea] | < 500 | – | < 500 | < 500
CCOC(=O)Nc1cc(N(C)[C@@H](C)c2ccccc2)nn2c(C)nnc12 [Compound 11] | < 500 | – | < 500 | < 500
C[C@@H](c1ccccc1)N(C)c1ccc2nnc(C#N)n2n1 [Compound 9, (S)-6-(methyl(1-phenylethyl)amino)-[1,2,4]triazolo[4,3-b]pyridazine-3-carbonitrile] | > 1000 | > 1000 | – | > 1000

More lines, main results first:

IC50 [1] [nM] | IC50 [2] [nM] | IC50 [4] [nM] | Compound | IC50 [3] [nM]
< 500 | < 500 | – | CCNC(=O)Nc1cc(N(C)[C@@H](C)c2ccc(Cl)cc2)nn2c(C)nnc12 [Compound 13] | < 500
< 500 | – | > 1000 | Cc1nnc2c(NC(=O)N(C)C)cc(N(C)[C@@H](C)c3ccccc3)nn12 [Compound 8, (S)-1,1-dimethyl-3-(3-methyl-6-(methyl(1-phenylethyl)amino)-[1,2,4]triazolo[4,3-b]pyridazin-8-yl)urea] | 500 to 1000
< 500 | < 500 | – | CCNC(=O)Nc1cc(N(C)[C@@H](C)c2ccc(F)cc2)nn2c(C)nnc12 [Compound 12] | < 500
< 500 | < 500 | – | CCNC(=O)Nc1cc(N(C)[C@@H](C)c2ccccc2)nn2c(C(F)(F)F)nnc12 [Compound 14] | < 500
< 500 | – | – | Cc1nnc2ccc(N(C)[C@@H](C)c3ccccc3)nn12 [Compound 3, (S)-N,3-dimethyl-N-(1-phenylethyl)-[1,2,4]triazolo[4,3-b]pyridazin-6-amine] | > 1000
< 500 | – | – | Cc1nnc2c(N)cc(N(C)[C@@H](C)c3ccccc3)nn12 [Compound 6, (S)-N^6,3-dimethyl-N^6-(1-phenylethyl)-[1,2,4]triazolo[4,3-b]pyridazine-6,8-diamine] | < 500
